Where two headings read alike, the source gives them in different places.
Columns and labels:
Human mTOR (FLAG-TOR) = target: T1, Human mTOR (FLAG-TOR) (Homo sapiens, UniProt P42345); experiment: Human mTOR kinase assay with purified enzyme, DELFIA format; format: biochemical
T1 construct: FLAG
Summary of the method: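 DELFIA readout: Eu-anti-P(T389)-S6K antibody (40 ng/mL, 1 h) on captured His6-S6K from the stopped reaction. Kinase step used purified FLAG-tagged human mTOR with test compound in HEPES (pH 7.4)/MnCl2/DTT buffer, 2 h at room temperature (linear 1–6 h), terminated by EDTA/EGTA.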

prostate line LNCap = experiment: In vitro cell culture growth assay (MTS), LNCap; format: cell-based; settings: Homo sapiens, LNCaP, 72 h, LNCap cells, three days after drug treatment
Summary of the method: (§1)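 Viable cell density is assessed three days after inhibitor addition via MTS conversion, normalised to vehicle-treated cells.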

PI3K [1] = target: T2, PI3K (Homo sapiens, UniProt P48736); experiment: Fluorescence polarization assay for PI3K; format: biochemical; settings: read-out: PI3 Kinase γ IC50
T2 construct: PI3 Kinase γ IC50; other: PI3 Kinase γ; other: PI3 Kinase γ isoform, fluorescence polarization
T2 sequence (P48736 whole entry, canonical isoform): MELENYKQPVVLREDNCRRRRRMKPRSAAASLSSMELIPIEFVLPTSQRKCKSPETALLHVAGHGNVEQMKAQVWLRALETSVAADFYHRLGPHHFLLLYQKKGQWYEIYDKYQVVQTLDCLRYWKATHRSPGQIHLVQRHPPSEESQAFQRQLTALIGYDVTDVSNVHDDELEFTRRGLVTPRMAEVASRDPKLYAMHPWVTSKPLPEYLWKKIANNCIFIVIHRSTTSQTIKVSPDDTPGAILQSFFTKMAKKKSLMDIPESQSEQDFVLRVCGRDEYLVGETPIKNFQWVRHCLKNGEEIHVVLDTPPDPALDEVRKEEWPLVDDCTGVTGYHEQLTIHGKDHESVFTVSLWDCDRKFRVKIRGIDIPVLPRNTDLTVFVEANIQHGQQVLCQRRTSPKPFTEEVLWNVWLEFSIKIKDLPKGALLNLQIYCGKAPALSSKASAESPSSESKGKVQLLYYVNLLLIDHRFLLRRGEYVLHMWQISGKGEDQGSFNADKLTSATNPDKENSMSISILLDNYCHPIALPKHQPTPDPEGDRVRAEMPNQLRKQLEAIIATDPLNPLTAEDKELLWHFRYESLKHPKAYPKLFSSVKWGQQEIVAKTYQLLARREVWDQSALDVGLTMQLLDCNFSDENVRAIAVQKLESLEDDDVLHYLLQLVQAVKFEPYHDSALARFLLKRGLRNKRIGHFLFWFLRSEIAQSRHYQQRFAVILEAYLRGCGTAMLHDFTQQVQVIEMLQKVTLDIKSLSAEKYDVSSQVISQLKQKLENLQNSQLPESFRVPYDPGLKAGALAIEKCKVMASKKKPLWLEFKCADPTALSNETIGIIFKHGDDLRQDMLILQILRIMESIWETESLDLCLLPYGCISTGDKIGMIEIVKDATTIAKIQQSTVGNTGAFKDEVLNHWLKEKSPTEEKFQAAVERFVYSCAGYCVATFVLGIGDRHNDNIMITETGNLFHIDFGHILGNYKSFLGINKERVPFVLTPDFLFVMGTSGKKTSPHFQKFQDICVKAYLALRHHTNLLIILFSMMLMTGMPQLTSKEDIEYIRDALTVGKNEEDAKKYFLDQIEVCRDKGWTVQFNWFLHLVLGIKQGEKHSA
Summary of the method: (§2)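 Fluorescence-polarization competition readout: after 30–60 min of PIP2/ATP turnover in 1% DMSO, a stop mix with GST-GRP (70 nM) and red probe (10 nM) was added.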

PI3K [2] = target: T3, PI3K (Homo sapiens, UniProt P42336); experiment: Fluorescence polarization assay for PI3K; format: biochemical; settings: read-out: PI3 Kinase α IC50
T3 construct: PI3 Kinase α IC50; other: PI3 Kinase α; other: PI3 Kinase α isoform, fluorescence polarization
T3 sequence (P42336 whole entry, canonical isoform): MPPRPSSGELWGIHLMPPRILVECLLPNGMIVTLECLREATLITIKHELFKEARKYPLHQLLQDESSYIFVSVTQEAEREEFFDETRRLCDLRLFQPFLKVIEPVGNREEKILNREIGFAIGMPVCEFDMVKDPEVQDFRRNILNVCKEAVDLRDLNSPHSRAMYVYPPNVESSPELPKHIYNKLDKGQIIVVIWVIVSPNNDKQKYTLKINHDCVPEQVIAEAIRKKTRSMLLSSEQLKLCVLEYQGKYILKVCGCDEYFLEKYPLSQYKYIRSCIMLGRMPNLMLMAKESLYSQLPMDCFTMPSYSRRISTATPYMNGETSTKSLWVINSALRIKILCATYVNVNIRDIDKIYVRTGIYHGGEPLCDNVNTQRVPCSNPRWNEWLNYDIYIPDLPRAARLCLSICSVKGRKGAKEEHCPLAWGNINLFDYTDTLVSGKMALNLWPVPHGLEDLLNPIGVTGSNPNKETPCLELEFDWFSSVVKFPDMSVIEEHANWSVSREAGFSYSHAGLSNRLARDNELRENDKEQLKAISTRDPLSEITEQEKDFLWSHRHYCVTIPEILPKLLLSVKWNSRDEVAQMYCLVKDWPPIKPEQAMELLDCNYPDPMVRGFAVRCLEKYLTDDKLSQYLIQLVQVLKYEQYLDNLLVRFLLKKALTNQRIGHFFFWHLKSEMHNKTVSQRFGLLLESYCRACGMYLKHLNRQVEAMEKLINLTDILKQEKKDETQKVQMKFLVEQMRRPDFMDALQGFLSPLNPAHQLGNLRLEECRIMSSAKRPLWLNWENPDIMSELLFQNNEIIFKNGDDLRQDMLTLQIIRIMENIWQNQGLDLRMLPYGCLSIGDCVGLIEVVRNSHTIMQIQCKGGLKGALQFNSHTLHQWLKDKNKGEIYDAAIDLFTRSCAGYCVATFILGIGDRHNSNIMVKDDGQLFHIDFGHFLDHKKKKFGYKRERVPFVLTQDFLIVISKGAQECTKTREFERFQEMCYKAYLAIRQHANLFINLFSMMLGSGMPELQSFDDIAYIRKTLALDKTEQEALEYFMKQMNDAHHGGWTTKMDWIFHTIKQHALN
Summary of the method: as §2

breast line MDA468 = experiment: In vitro cell culture growth assay (MTS), MDA468; format: cell-based; settings: Homo sapiens, 72 h, MDA468 cells, three days after drug treatment
Summary of the method: as §1

[3] = purified human mTOR enzyme, DELFIA format
[4] = PI3 Kinase γ isoform, fluorescence polarization
[5] = PI3 Kinase α isoform, fluorescence polarization

Which results are given for `CNC(=O)Nc1ccc(-c2nc(N3CC4CCC(C3)O4)c3cnn(C4COCOC4)c3n2)cc1` [Example 385, 1-{4-[1-(1,3-dioxan-5-yl)-4-(8-oxa-3-azabicyclo[3.2.1]oct-3-yl)-1H-pyrazolo[3,4-d]pyrimidin-6-yl]phenyl}-3-methylurea]?
IC50 (Human mTOR (FLAG-TOR); [3]): 9.95 nM; IC50 (prostate line LNCap): 1000 nM; IC50 (PI3K [1]; [4]): > 10000 nM; IC50 (PI3K [2]; [5]): 4030 nM; IC50 (breast line MDA468): 4700 nM

For `COC(=O)N1CCC(n2ncc3c(N4CC5CCC(C4)O5)nc(-c4ccc(NC(=O)NCCN5CCN(C)CC5)cc4)nc32)CC1` [Example 170, methyl 4-{6-[4-({[2-(4-methylpiperazin-1-yl)ethyl]carbamoyl}amino)phenyl]-4-(8-oxa-3-azabicyclo[3.2.1]oct-3-yl)-1H-pyrazolo[3,4-d]pyrimidin-1-yl}piperidine-1-carboxylate], which IC50 (Human mTOR (FLAG-TOR)) is on record?
The IC50 was 51 nM.

What about the IC50 (prostate line LNCap) of the same compound?
The IC50 was 1300 nM.

And the IC50 (PI3K [1]; PI3 Kinase γ)?
Its IC50 is 4420 nM.

And the IC50 (PI3K [2]; PI3 Kinase α)?
The IC50 was 705 nM.

And the IC50 (breast line MDA468)?
Its IC50 is 6000 nM.

For `CNC(=O)Nc1ccc(-c2nc(N3CC4CCC(C3)O4)c3cnn(C4CCC(NN(C)C)CC4)c3n2)cc1` (centres unmarked) [Example 333, 1-(4-{1-[4-(2,2-dimethylhydrazino)cyclohexyl]-4-(8-oxa-3-azabicyclo[3.2.1]oct-3-yl)-1H-pyrazolo[3,4-d]pyrimidin-6-yl}phenyl)-3-methylurea], which IC50 (Human mTOR (FLAG-TOR); [3]) is on record?
The IC50 was 0.58 nM.

What about the IC50 (prostate line LNCap) of the same compound?
Its IC50 is 68 nM.

What about the IC50 (PI3K [1]; [4]) of the same compound?
The IC50 was 4590 nM.

What about the IC50 (PI3K [2]; [5]) of the same compound?
Its IC50 is 276 nM.

And the IC50 (breast line MDA468)?
Its IC50 is 380 nM.

How did the IC50 (Human mTOR (FLAG-TOR); [3]) turn out when `c1cncc(CN2CCC(n3ncc4c(N5CC6CCC(C5)O6)nc(-c5ccc6[nH]ccc6c5)nc43)CC2)c1` [Example 394, 6-(1H-indol-5-yl)-4-(8-oxa-3-azabicyclo[3.2.1]oct-3-yl)-1-[1-(pyridin-3-ylmethyl)piperidin-4-yl]-1H-pyrazolo[3,4-d]pyrimidine] was run?
The IC50 was 14.5 nM.

What about the IC50 (prostate line LNCap) of the same compound?
The IC50 was 320 nM.

And the IC50 (PI3K [1]; [4])?
The IC50 was 9500 nM.

And the IC50 (PI3K [2]; [5])?
The IC50 was 2920 nM.

And the IC50 (breast line MDA468)?
The IC50 was 2000 nM.

What does the source list for `CCNC(=O)Nc1ccc(-c2nc(N3CC4CCC(C3)O4)c3cnn(C4CCN(C(=O)OC)CC4)c3n2)cc1` [Example 9, methyl 4-[6-{4-[(ethylcarbamoyl)amino]phenyl}-4-(8-oxa-3-azabicyclo[3.2.1]oct-3-yl)-1H-pyrazolo[3,4-d]pyrimidin-1-yl]piperidine-1-carboxylate]?
IC50 (Human mTOR (FLAG-TOR)): 0.22 nM; IC50 (prostate line LNCap): 9 nM; IC50 (PI3K [1]; PI3 Kinase γ): > 10000 nM; IC50 (PI3K [2]; PI3 Kinase α): 5330 nM; IC50 (breast line MDA468): 180 nM

Which IC50 (Human mTOR (FLAG-TOR)) does the source give for `CC(C)OC(=O)N1CCC(n2ncc3c(N4CC5CCC(C4)O5)nc(-c4ccc(NC(=O)Nc5cccnc5)cc4)nc32)CC1` [Example 72, isopropyl 4-[4-(8-oxa-3-azabicyclo[3.2.1]oct-3-yl)-6-{4-[(pyridin-3-ylcarbamoyl)amino]phenyl}-1H-pyrazolo[3,4-d]pyrimidin-1-yl]piperidine-1-carboxylate] here?
Its IC50 is 0.2 nM.

And the IC50 (prostate line LNCap)?
The IC50 was 1.7 nM.

What about the IC50 (PI3K [1]; PI3 Kinase γ) of the same compound?
Its IC50 is 2690 nM.

What about the IC50 (PI3K [2]; PI3 Kinase α) of the same compound?
The IC50 was 324 nM.

What about the IC50 (breast line MDA468) of the same compound?
The IC50 was 36 nM.

With `O=C(NCCF)Nc1ccc(-c2nc(N3CC4CCC(C3)O4)c3cnn(CC(F)(F)F)c3n2)cc1` [Example 6, 1-(2-fluoroethyl)-3-{4-[4-(8-oxa-3-azabicyclo[3.2.1]oct-3-yl)-1-(2,2,2-trifluoroethyl)-1H-pyrazolo[3,4-d]pyrimidin-6-yl]phenyl}urea] as the compound, how does the IC50 (Human mTOR (FLAG-TOR)) read?
Its IC50 is 0.22 nM.

And the IC50 (prostate line LNCap)?
The IC50 was under 27 nM.

And the IC50 (PI3K [1]; PI3 Kinase γ)?
The IC50 was 6570 nM.

And the IC50 (PI3K [2]; PI3 Kinase α)?
The IC50 was 2750 nM.

And the IC50 (breast line MDA468)?
The IC50 was under 27 nM.

With `CN1CCN(C2CCC(n3ncc4c(N5CC6CCC(C5)O6)nc(-c5ccc(NC(=O)NC6CC6)cc5)nc43)CC2)CC1` (centres unmarked) [Example 372, 1-cyclopropyl-3-(4-{1-[4-(4-methylpiperazin-1-yl)cyclohexyl]-4-(8-oxa-3-azabicyclo[3.2.1]oct-3-yl)-1H-pyrazolo[3,4-d]pyrimidin-6-yl}phenyl)urea] as the compound, how does the IC50 (Human mTOR (FLAG-TOR); [3]) read?
The IC50 was 0.395 nM.

And the IC50 (prostate line LNCap)?
The IC50 was 110 nM.

What about the IC50 (PI3K [1]; [4]) of the same compound?
The IC50 was 5340 nM.

What about the IC50 (PI3K [2]; [5]) of the same compound?
Its IC50 is 2980 nM.

What about the IC50 (breast line MDA468) of the same compound?
The IC50 was 420 nM.

What does the source list for `CC(C)(C)n1ncc2c(N3CC4CCC(C3)O4)nc(-c3ccc(NC(=O)NC4CC4)cc3)nc21` [Example 96]?
IC50 (Human mTOR (FLAG-TOR)): 0.4 nM; IC50 (prostate line LNCap): 1700 nM; IC50 (PI3K [1]; PI3 Kinase γ): > 10000 nM; IC50 (PI3K [2]; PI3 Kinase α): 1140 nM; IC50 (breast line MDA468): > 60000 nM

Which results are given for `COC(=O)N1CCC(n2ncc3c(N4CC5CCC(C4)O5)nc(-c4ccc(NC(=O)OCCN5CCCC5)cc4)nc32)CC1` [Example 116, methyl 4-[4-(8-oxa-3-azabicyclo[3.2.1]oct-3-yl)-6-(4-{[(2-pyrrolidin-1-ylethoxy)carbonyl]amino}phenyl)-1H-pyrazolo[3,4-d]pyrimidin-1-yl]piperidine-1-carboxylate]?
IC50 (Human mTOR (FLAG-TOR)): 335 nM; IC50 (prostate line LNCap): 1700 nM; IC50 (PI3K [1]; PI3 Kinase γ): 6740 nM; IC50 (PI3K [2]; PI3 Kinase α): 2660 nM; IC50 (breast line MDA468): 4000 nM

From patent US8129371B2, “Thienopyrimidine and pyrazolopyrimidine compounds and their use as mTOR kinase and PI3 kinase inhibitors” (Wyeth LLC, priority 2007, dated 2012)
